Values joined by “and” are separate entries in the source; they are usually repeats but may differ in a detail not shown here. Equal entries are not always repeated.
Tests used:
DRD2 (D2 long receptor) = DRD2 (D2 long receptor) (Homo sapiens, UniProt P14416); assay: β-arrestin2 recruitment (Tango), HTLA cells; type: cell-based; conditions: for response, concentration-response data point (replicates): Fig_S10a, drug alone
DRD2 F1103.28A = DRD2 F1103.28A (Homo sapiens, UniProt P14416, F110A); type: binding; parameters: expressed in transfected cells; host or cells: HEK293T (ATCC CRL-11268); conditions: DRD2 F1103.28A; read-out: Ki
5HT2A = 5HT2A (Homo sapiens, UniProt P28223); assay: β-arrestin2 recruitment (Tango); type: cell-based; conditions: single replicate values
[1] = target: DRD2 (D2 long receptor) wild-type (Homo sapiens, UniProt P14416); assay: Radioligand competition binding, [3H]-N-methylspiperone, HEK293T membranes; conditions: DRD2; [3H]-methylspiperone (0.8-1.0 nM); read-out: Ki
DRD2 (D2 long receptor) wild-type, sequence (P14416 whole entry): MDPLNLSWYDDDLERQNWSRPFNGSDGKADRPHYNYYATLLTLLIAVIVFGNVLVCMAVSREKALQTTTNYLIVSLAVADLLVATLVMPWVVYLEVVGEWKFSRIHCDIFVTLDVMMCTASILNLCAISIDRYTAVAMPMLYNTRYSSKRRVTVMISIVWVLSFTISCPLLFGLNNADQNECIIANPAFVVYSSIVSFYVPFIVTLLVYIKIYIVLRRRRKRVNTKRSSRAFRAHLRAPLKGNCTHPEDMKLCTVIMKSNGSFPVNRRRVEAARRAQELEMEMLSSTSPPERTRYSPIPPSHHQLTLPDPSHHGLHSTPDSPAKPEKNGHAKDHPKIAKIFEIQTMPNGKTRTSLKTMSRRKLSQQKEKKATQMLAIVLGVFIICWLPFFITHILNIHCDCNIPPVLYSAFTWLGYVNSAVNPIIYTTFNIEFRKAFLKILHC

5HT2A, sequence (P28223 whole entry): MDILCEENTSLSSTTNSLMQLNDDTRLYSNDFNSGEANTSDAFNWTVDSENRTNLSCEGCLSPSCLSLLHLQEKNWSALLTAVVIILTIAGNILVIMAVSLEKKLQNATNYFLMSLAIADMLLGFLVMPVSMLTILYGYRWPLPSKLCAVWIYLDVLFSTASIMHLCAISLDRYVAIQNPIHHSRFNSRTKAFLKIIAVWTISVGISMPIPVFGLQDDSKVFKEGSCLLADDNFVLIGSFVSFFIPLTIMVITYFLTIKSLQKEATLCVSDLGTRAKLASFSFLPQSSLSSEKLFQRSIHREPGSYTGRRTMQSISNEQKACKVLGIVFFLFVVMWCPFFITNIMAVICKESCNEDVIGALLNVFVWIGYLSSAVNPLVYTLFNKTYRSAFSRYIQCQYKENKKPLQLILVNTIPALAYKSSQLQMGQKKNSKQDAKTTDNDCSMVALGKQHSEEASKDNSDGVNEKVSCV
DRD2 (D2 long receptor), sequence (P14416 whole entry): as the sequence (P14416 whole entry) above
DRD2 F1103.28A, sequence (P14416 whole entry F110A): as the sequence (P14416 whole entry) above, with F110A counted along it

Compound: CCOc1cccc2cc([C@@H](C)NCC3(O)CCCCC3)oc12 [O4RE6]
- β-arrestin2 recruitment agonist activity (DRD2 (D2 long receptor); DRD2, Tango): full agonist
- EC50 (DRD2 (D2 long receptor); DRD2, β-arrestin2 recruitment (Tango), read-out: EC50 ± SEM): 48.8 ± 9.47 nM
- response, concentration-response data point (replicates) (DRD2 (D2 long receptor); Log[Drug] -5): 104.045 and 116.205 and 96.7104 and 116.434 and 93.993 and 105.729 and 95.4582 and 106.414 and 85.5052
- response, concentration-response data point (replicates) (DRD2 (D2 long receptor); Log[Drug] -5.52): 89.1788 and 85.4445 and 90.8217 and 84.5796 and 80.0855 and 101.122 and 96.0613 and 81.9697 and 99.3385
- response, concentration-response data point (replicates) (DRD2 (D2 long receptor); Log[Drug] -6): 82.8973 and 82.5495 and 79.2486 and 94.3704 and 78.2631 and 78.6908 and 80.3531 and 91.2175 and 73.5194
- response, concentration-response data point (replicates) (DRD2 (D2 long receptor); Log[Drug] -6.52): 72.8482 and 85.473 and 74.6038 and 82.6009 and 103.942 and 82.378 and 70.1593 and 68.4699 and 74.397
- response, concentration-response data point (replicates) (DRD2 (D2 long receptor); Log[Drug] -7): 71.4846 and 69.3009 and 62.1089 and 68.8602 and 55.9009 and 59.7861 and 54.6819 and 54.8285 and 54.3284
- response, concentration-response data point (replicates) (DRD2 (D2 long receptor); Log[Drug] -7.52): 50.7715 and 50.9759 and 58.0792 and 57.6214 and 43.2407 and 45.9376 and 55.9749 and 62.7315 and 56.5853
- response, concentration-response data point (replicates) (DRD2 (D2 long receptor); Log[Drug] -8): 39.7841 and 36.3747 and 29.4664 and 31.1292 and 29.8397 and 30.2988 and 27.2382 and 26.622 and 26.0732
- response, concentration-response data point (replicates) (DRD2 (D2 long receptor); Log[Drug] -8.52): 13.2168 and 14.3867 and 13.161 and 13.9303 and 10.9069 and 10.856 and 10.5462 and 11.4912 and 11.2421
- response, concentration-response data point (replicates) (DRD2 (D2 long receptor); Log[Drug] -9): 7.123 and 6.617 and 6.837 and 5.043 and 6.064 and 6.895 and 5.588 and 6.122 and 5.826
- response, concentration-response data point (replicates) (DRD2 (D2 long receptor); Log[Drug] -11): 5.0524
- response, concentration-response data point (replicates) (DRD2 (D2 long receptor); Log[Drug] -11.52): 4.975 and 5.004 and 4.993 and 4.845 and 4.81 and 4.615 and 4.945 and 4.7318 and 4.6555
- response, concentration-response data point (replicates) (DRD2 (D2 long receptor); Log[Drug] -12): 4.9053 and 4.975 and 5.325 and 4.582 and 4.593 and 4.629 and 5.065 and 4.845 and 4.581
- Emax (DRD2 (D2 long receptor); HTLA, read-out: Emax relative to quinpirole response, DRD2, Tango): 99.6%
- β-arrestin2 recruitment response at DRD2 (source data, replicate values) (DRD2 (D2 long receptor); Log[Drug] -5): 73.5777 and 57.7969 and 60.7943 and 65.7822 and 71.9755 and 71.4753 and 62.0106
- β-arrestin2 recruitment response at DRD2 (source data, replicate values) (DRD2 (D2 long receptor); Log[Drug] -5.52): 50.6787 and 47.7474 and 41.401 and 56.0167 and 52.8546 and 51.367 and 55.6817
- β-arrestin2 recruitment response at DRD2 (source data, replicate values) (DRD2 (D2 long receptor); Log[Drug] -6): 39.3966 and 41.1099 and 37.2084 and 41.7585 and 38.5021 and 38.079 and 42.2149
- β-arrestin2 recruitment response at DRD2 (source data, replicate values) (DRD2 (D2 long receptor); Log[Drug] -6.52): 17.548 and 17.9218 and 22.2395 and 30.2893 and 22.7451 and 19.4102 and 21.7916
- β-arrestin2 recruitment response at DRD2 (source data, replicate values) (DRD2 (D2 long receptor); Log[Drug] -7): 9.564 and 7.739 and 7.708 and 7.415 and 7.649 and 7.113 and 9.501
- β-arrestin2 recruitment response at DRD2 (source data, replicate values) (DRD2 (D2 long receptor); Log[Drug] -7.52): 5.75 and 5.841 and 5.282 and 5.619 and 6.782 and 5.749 and 5.8801
- β-arrestin2 recruitment response at DRD2 (source data, replicate values) (DRD2 (D2 long receptor); Log[Drug] -8): 5.434 and 5.45 and 5.389 and 5.042 and 5.329 and 5.148 and 5.345
- β-arrestin2 recruitment response at DRD2 (source data, replicate values) (DRD2 (D2 long receptor); Log[Drug] -8.52): 5.277 and 5.01 and 4.9419 and 4.98 and 5.0858 and 5.308 and 5.178
- β-arrestin2 recruitment response at DRD2 (source data, replicate values) (DRD2 (D2 long receptor); Log[Drug] -9): 5.4097 and 5.385 and 5.128 and 4.863 and 4.947 and 4.805 and 4.8829
- β-arrestin2 recruitment response at DRD2 (source data, replicate values) (DRD2 (D2 long receptor); Log[Drug] -9.52): 5.139 and 4.887 and 4.831 and 4.75 and 5.079 and 5.123 and 4.823
- β-arrestin2 recruitment response at DRD2 (source data, replicate values) (DRD2 (D2 long receptor); Log[Drug] -10): 5.431 and 4.786 and 4.659 and 4.856 and 4.756 and 4.79 and 4.8682
- β-arrestin2 recruitment response at DRD2 (source data, replicate values) (DRD2 (D2 long receptor); Log[Drug] -10.52): 5.022 and 4.798 and 4.776 and 4.763 and 4.86 and 4.945 and 4.841
- β-arrestin2 recruitment response at DRD2 (source data, replicate values) (DRD2 (D2 long receptor); Log[Drug] -11): 4.915 and 4.765 and 4.615 and 4.7302 and 4.774 and 4.749 and 4.971
- β-arrestin2 recruitment response at DRD2 (source data, replicate values) (DRD2 (D2 long receptor); Log[Drug] -11.52): 4.946 and 4.662 and 4.627 and 4.695 and 4.751 and 4.656 and 4.732
- Ki (DRD2 F1103.28A): 490 nM
- Fig_S10k dose-response, drug alone (agonist mode), β-arrestin2 recruitment (5HT2A; Log[Drug] -6.52): -0.1908
- Fig_S10k dose-response, drug alone (agonist mode), β-arrestin2 recruitment (5HT2A; Log[Drug] -7): 0.697 and 0.4035 and 0.09538 and 0.6532 and -1.18 and 3.874 and 0.7119 and 4.575 and 2.4436
- Fig_S10k dose-response, drug alone (agonist mode), β-arrestin2 recruitment (5HT2A; Log[Drug] -7.52): 0.4035 and -0.7777 and -0.1834 and -1.703 and -0.8871 and -1.1926 and 2.795 and 3.208 and 1.294
- Fig_S10k dose-response, drug alone (agonist mode), β-arrestin2 recruitment (5HT2A; Log[Drug] -8): 1.5774 and 2.458 and -0.4916 and -0.4094 and -2.089 and 0.5329 and 11.4772 and 3.9492 and 2.4436
- Fig_S10k dose-response, drug alone (agonist mode), β-arrestin2 recruitment (5HT2A; Log[Drug] -8.52): -0.8437 and 0.3668 and 0.9905 and -1.355 and 3.003 and -0.7312 and 3.002 and 2.824 and 3.026
- Fig_S10k dose-response, drug alone (agonist mode), β-arrestin2 recruitment (5HT2A; Log[Drug] -9): 16.8085 and 6.2069 and -0.2128 and 11.6986 and 0.5297 and -1.349 and 1.8808 and 2.833 and 2.6312
- Fig_S10k dose-response, drug alone (agonist mode), β-arrestin2 recruitment (5HT2A; Log[Drug] -9.52): -0.5503 and 0.3742 (2×) and -0.2437 and 18.2855 and 12.0983 and 1.862 and 3.213 and 3.608
- Fig_S10k dose-response, drug alone (agonist mode), β-arrestin2 recruitment (5HT2A; Log[Drug] -10): 0.4035 and 2.4358 and 3.331 and 0.1365 and -1.683 and 9.281 and 2.751 and 3.406 and 1.477
- Fig_S10k dose-response, drug alone (agonist mode), β-arrestin2 recruitment (5HT2A; Log[Drug] -10.52): -0.4916 and 0.9758 and -0.7997 and 1.29 and 4.65 and 10.4637 and 6.306 and 3.973 and 2.054
- Fig_S10k dose-response, drug alone (agonist mode), β-arrestin2 recruitment (5HT2A; Log[Drug] -11): 2.45 and 2.135 and 3.331 and -1.706 and -2.372 and 0.351 and 0.3319 and 2.848 and 1.106
- Fig_S10k dose-response, drug alone (agonist mode), β-arrestin2 recruitment (5HT2A; Log[Drug] -11.52): 0.3302 and 0.9611 and 1.255 and 6.574 and 5.31 and 2.18 and 0.7408 and 1.698 and 1.477
- Fig_S10k dose-response, drug alone (agonist mode), β-arrestin2 recruitment (5HT2A; Log[Drug] -12): 0.3962 and 4.798 and 3.859 and -0.7864 and -1.57 and 2.356 and 1.337 and 0.7456 and 3.045
- Ki [1]: 690 nM
